Data reported in PubChem BioAssay (NCI).
Several values for one entry are separate records, joined by “and”; a condition that tells them apart may be missing. Equal entries are not always repeated.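 Method: 48-hour compound exposure of cells in 96-well plates, five concentrations, linear interpolation of endpoints. The concentration for 50% growth inhibition is given as GI50. TGI denotes the concentration required for complete inhibition of growth.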

What was measured:
Assay in all cases: inhibition of tumour cell growth, NCI panel, 48 h
SF-539 CNS = system: SF-539 CNS
MDA-MB-435 = system: MDA-MB-435
BT-549 breast = system: BT-549 breast
HT29 colon = system: HT29 colon
COLO 205 colon = system: COLO 205 colon
SN12C renal = system: SN12C renal
SNB-19 CNS = system: SNB-19 CNS
OVCAR-8 ovarian = system: OVCAR-8 ovarian
HL-60(TB) leukemia = system: HL-60(TB) leukemia
CAKI-1 renal = system: CAKI-1 renal

| Structure (SMILES) | TGI (SF-539 CNS) | TGI (MDA-MB-435) | TGI (BT-549 breast) [µM] | TGI (HT29 colon) | TGI (COLO 205 colon) | TGI (SN12C renal) | TGI (SNB-19 CNS) | TGI (OVCAR-8 ovarian) | TGI (HL-60(TB) leukemia) | TGI (CAKI-1 renal) [µM] | GI50 (SF-539 CNS) [µM] | GI50 (MDA-MB-435) [µM] | GI50 (COLO 205 colon) [µM] | GI50 (SN12C renal) [µM] | GI50 (SNB-19 CNS) [µM] | GI50 (HL-60(TB) leukemia) [µM] | GI50 (CAKI-1 renal) [µM] | GI50 (BT-549 breast) [µM] | GI50 (HT29 colon) | GI50 (OVCAR-8 ovarian) |
| --- | --- | --- | --- | --- | --- | --- | --- | --- | --- | --- | --- | --- | --- | --- | --- | --- | --- | --- | --- | --- |
| COc1ccc2c(c1OC)C(C(Cl)(Cl)Cl)N1CCc3cc4c(cc3C1=C2)OCO4 (stereo not given) | > 100 µM | 27 µM | 8.63 | 68.4 µM | 20.8 µM | > 100 µM | > 100 µM | > 100 µM | 45.2 µM | > 100 |  |  |  |  |  |  |  |  |  |  |
| Cc1c(N)nc(C(CC(N)=O)NCC(N)C(N)=O)nc1C(=O)NC(C(=O)NC(C)C(O)C(C)C(=O)NC(C(=O)NCCc1nc(-c2nc(C(=O)NCCCNC(C)c3ccccc3)cs2)cs1)C(C)O)C(OC1OC(CO)C(O)C(O)C1OC1OC(CO)C(O)C(OC(N)=O)C1O)c1cnc[nH]1 (stereo not given) | 0.476 µM and 0.681 µM | > 100 µM | 50 | 50 µM and > 100 µM | 50 µM and > 100 µM | 29.3 µM and > 100 µM | 39.7 µM and > 100 µM | 50 µM and > 100 µM | 50 µM and > 100 µM |  | 0.0376 | 76 | 32.6 | 5.99 | 14.5 | 32 | 2 |  |  |  |
| CC([C@H]1CC=C2C3CCC4=C[C@@H](N(C)C)CC[C@]4(C)C3CC[C@@]21C)N(C)C (stereo not given in full) | 2.84 µM | 4.94 µM | 15.4 | 2.11 µM | 3.37 µM | 12.1 µM | 20.4 µM | 22.3 µM | 3.66 µM | 10.3 | 1.4 | 2 | 1.7 | 2.54 | 7.57 | 1.26 | 2.49 | 3.54 | 0.455 µM | 5.85 µM |
| O=C(c1ccco1)c1c(C(F)(F)F)n([O-])c2cc(C(F)(F)F)ccc2[n+]1=O | 2.61 µM | 3.1 µM | 1.09 | 2.84 µM | 2 µM | 3.45 µM | 2.99 µM |  | 0.484 µM | 2.97 | 1.27 | 1.47 | 0.475 | 1.29 | 1.47 | 0.185 | 1.51 | 0.486 | 1.25 µM | 0.688 µM |
| Cc1[nH]c(N)nc(=S)c1CCC(=O)O | > 100 µM | > 100 µM | > 100 | > 100 µM | > 100 µM | > 100 µM | > 100 µM | > 100 µM | > 100 µM | > 100 |  |  |  |  |  |  |  |  |  |  |
| NC(N)=NC(N)=NCCCc1ccco1 | 268 µM | 82.4 µM | 152 | > 500 µM | > 500 µM | 253 µM | > 500 µM | 190 µM | 48.2 µM | 247 | 108 | 21.5 | > 500 | 87.2 | > 500 | 15.9 | 92.4 | 39.6 | > 500 µM | 31.8 µM |
| CC(C)=CC(=O)N[C@H]1CC[C@]2(C)C3CC[C@]4(C)C(C(C)N(C)C)=CCC4C3CCC2[C@H]1O (stereo not given in full) | 3.38 µM | 4.53 µM | 20.8 | 2.92 µM | 3.3 µM | 19.1 µM | 28.1 µM | > 51.8 µM | 9.11 µM | 14.7 | 1.59 | 2 | 1.69 | 5.27 | 14.8 | 3.34 | 5.63 | 5.99 | 0.676 µM | 13.9 µM |
| C[C@H]1COCCN1c1cc(C2(S(=O)(=O)C3CC3)CC2)nc(-c2ccc(NC(=S)NCCO)cc2)n1 | 0.347 µM | 1.19 µM | 0.134 | > 60.4 µM | 10.4 µM | 61.2 µM | 11.5 µM | 3.06 µM | 28.6 µM | 10.2 | 0.0292 | 0.0244 | 0.0172 | 0.0263 | 0.061 | 0.702 | 0.139 | < 0.012 | 0.0648 µM | 0.0511 µM |
| CCCCCC[C@@H](C)NC(=O)c1ccc(Nc2nc3ccccc3c3occc23)cc1 | 5.29 µM | > 100 µM | 7.61 | > 100 µM |  | > 100 µM | > 100 µM | 16.5 µM | > 100 µM | 28.3 | 2.07 | 2.98 | 3.08 | 40.8 | 5.54 | 5.14 | 2.82 | 2.35 | 2.81 µM | 3.08 µM |
| CN(C)CCCC1(c2ccc(F)cc2)OCc2cc(-c3cc4ccccc4s3)ccc21 (stereo not given) | 3.09 µM | 3.32 µM | 3.89 | 3.11 µM | 2.74 µM | 2.94 µM | 3.13 µM | 3.25 µM | 3.39 µM | 2.59 | 1.7 | 1.83 | 1.34 | 1.57 | 1.72 | 1.76 | 1.29 | 2.03 | 1.67 µM | 1.72 µM |
| C=C1C(=O)O[C@H]2[C@H]1CC/C(Cn1cc(-c3ccc(F)cc3)nn1)=C\CC[C@@]1(C)O[C@@H]21 | 1.08 µM | 2.39 µM | 2.13 | 2.15 µM | 1.67 µM | 3.79 µM | 13 µM | 3.85 µM | 2.76 µM | 2.23 | 0.271 | 1 | 0.459 | 1.64 | 3.39 | 0.728 | 1.03 | 0.838 | 0.695 µM | 1.66 µM |
| Cn1c(-c2ccccc2)c(/C=C/C2=[N+](C)c3ccccc3C2(C)C)c2ccccc21 | 14.2 µM | 4.02 µM | 3.71 | 7.59 µM | 2.47 µM | 12.8 µM | 15.5 µM | 8.95 µM | 0.565 µM | 5.08 | 2.59 | 0.486 | 1 | 1.7 | 0.571 | 0.254 | 1.81 | 0.476 | 0.711 µM | 0.84 µM |
| CCC1(OC(=O)CN)C(=O)OCc2c1cc1n(c2=O)Cc2cc3ccccc3nc2-1 (stereo not given) | 0.191 µM and 0.0253 µM | 0.348 µM and 0.504 µM |  | > 100 µM | 0.667 µM | 0.64 µM | 4.91 µM |  | 0.084 µM and < 0.0132 µM |  | 0.0378 | 0.13 | 0.276 | 0.00715 | 0.0128 |  | 0.00739 | 0.459 | 0.111 µM and 0.0374 µM | 0.04 µM and 0.0227 µM |
